The term half-life denotes the time needed for the level to fall by half in the phase considered. A word on the bioavailability: it is dose-corrected exposure relative to a reference, in per cent.

Where two headings read alike, the source gives them in different places.

For data set [1], the target named is mu receptors of the CNS (Homo sapiens, UniProt P35372). Particulars: relative to morphine; cited from earlier work.
For data set [2], the system named is abdominal muscle contractions (writhing) induced by 0.6% acetic acid. Kind of data set: acetic acid writhing test of analgesia in mice. Format: in vivo, Crl:CFW (SW) BR mice. The settings on record: 0.6% acetic acid i.p. 30 min later, male mice; for Ave. # of writhes: 15-minute count. As for the experimental part:
In the animal studies presented in Examples 5-7, tramadol and dextro-propoxyphene were administered neat (undiluted), or were diluted with diluted with saline (i.e. 0.9% Sodium Chloride for injection) in order to achieve the desired dose volumes. Fresh solutions were prepared for each concentration (of each compound) prior to administration.
Acetic acid was used to assess experimental pain or “writhing.” Specifically, thirty minutes after dosing, the writhing-induction agent (0.6% Acetic Acid) was administered to all experimental groups by intraperitoneal injection at a dose volume of 10 mL/kg.
Crl:CFW® (SW) BR mice, from Charles River Laboratories were used as the animal model to test the analgesia of the tramadol/propoxyphene co-formulations. The test animals were approximately 4 weeks of age on arrival and each animals weighed approximately 22 to 28 g within 3 days of arrival. […] Animals considered suitable for study were weighed prior to treatment and randomized, by sex, into treatment groups using a standard, by weight, block randomization procedure.
The protocols employed assessed the qualitative and quantitative changes in abdominal muscle contractions (writhing) induced after the […] administration of a noxious chemical stimulus, 0.6% acetic acid, in mice. The degree and amount of contractile abdominal activity is a measure of “experimentally-induced pain”. A decrease in the amount of writhing with prior administration of a test article is an experimental measure of “analgesia.”
Dose-response functions were generated for each of the two (2) test articles (tramadol, dextro-propoxyphene,). ED50 values for analgesic activity were estimated using a least squares linear regression analysis procedure using PHARM/PCS or SAS.
The test article, positive control, and vehicle were administered to all groups as a single subcutaneous injection in the scapular region on the back at a dose volume of 10 mL/kg and at the dose levels as presented in Table 1 below.
Thirty minutes after dosing, the writhing-induction article, 0.6% acetic acid, was administered to all groups by intraperitoneal injection at a dose volume of 10 mL/kg.
Immediately after administration of the writhing-induction article, animals were placed into a poly-observation chamber and a 15-minute evaluation period was initiated. During the 15-minute evaluation period, the number of “writhes” that occurred were recorded. For scoring purposes, a “writhe” was indicated by whole body stretching or contraction of the abdomen, further described as waves of contraction of the abdominal musculature, twisting and turning of the trunk, and hind-limb extension.

The conditions of data set [3]: cited from earlier work; for half-life: after a single oral dose of 100 mg tramadol, 2-compartmental elimination; for accumulation: during multiple dose treatment with tramadol.
For data set [4], the system named is opioid receptors. Particulars: in words; cited from earlier work.
Data set [5] concerns NMDA receptor. The settings on record: in words, a recent study; cited from earlier work.
The conditions of data set [6]: in vivo; cited from earlier work.
For data set [7] the following is noted: in words; cited from earlier work.

Sequence of mu receptors of the CNS (P35372 whole entry): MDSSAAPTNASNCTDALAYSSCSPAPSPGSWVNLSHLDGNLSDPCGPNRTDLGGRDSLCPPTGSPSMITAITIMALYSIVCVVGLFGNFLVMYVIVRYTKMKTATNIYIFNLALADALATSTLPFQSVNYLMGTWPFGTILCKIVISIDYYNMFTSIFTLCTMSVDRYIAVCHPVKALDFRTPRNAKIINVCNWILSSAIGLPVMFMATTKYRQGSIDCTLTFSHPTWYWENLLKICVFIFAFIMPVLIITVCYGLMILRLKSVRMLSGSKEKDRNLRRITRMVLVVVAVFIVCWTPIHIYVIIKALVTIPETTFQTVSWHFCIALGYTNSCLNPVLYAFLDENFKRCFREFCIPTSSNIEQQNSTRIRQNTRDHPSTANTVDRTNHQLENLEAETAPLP

As to `COc1cccc([C@]2(O)CCCC[C@H]2CN(C)C)c1` (racemic) [Tramadol, cyclohexanol, 2-((dimethylamino)methyl)-1-(3-methoxyphenyl)-, cis-(+−)-], the “affinity for mu receptors of the CNS, times lower than that of morphine” value in data set [1] is recorded as 6000 times. In data set [2] (0.32 mg/kg single s.c. dose), the “Ave. # of writhes” value was 54.6 and the “% Analgesia” value is listed as −3.21%. Also, in data set [2] (1.0 mg/kg single s.c. dose), the “Ave. # of writhes” value amounted to 55.1 and the “% Analgesia” value is on record as −4.16%. In data set [2] (3.2 mg/kg single s.c. dose), the “Ave. # of writhes” value amounted to 31.7 and the “% Analgesia” value is 40.08%. Moreover, in data set [3], the half-life was 5.1 h and the accumulation entry is “approximately 2 fold”. The “duration of the analgesic effect” value in data set [3] (after a single oral dose of tramadol 100 mg) is “about 6 hours”. In addition, in data set [3] (after oral administration), the bioavailability is reported as 68% and the “time to peak serum concentrations” value was ≤ 2 h. Moreover, the “time to peak plasma levels” value in data set [3] (following oral administration) was ≤ 2 h. Moreover, in data set [4], the “affinity for opioid receptors” value is “low affinity”.
For `CN(C)CC1CCCCC1(O)c1cccc(O)c1` (centres unmarked) [M1 derivative, O-demethyl tramadol], in data set [3], the half-life is 9 h and the accumulation entry was “approximately 2 fold”. Also, the “affinity for opioid receptors” value in data set [4] is on record as “higher affinity for opioid receptors than the parent drug”.
On to `CCC(=O)OC(Cc1ccccc1)(c1ccccc1)C(C)CN(C)C` (stereo not drawn) [Propoxyphene, 2-Butanol, 4-(dimethylamino)-3-methyl-1,2-diphenyl-, propionate, (+)-], for which the “activity at the NMDA receptor” value in data set [5] is “antagonist activity”. Further, the entries for the “Ave. # of writhes” value in data set [2] (1.0 mg/kg single s.c. dose), in data set [2] (3.2 mg/kg single s.c. dose) and in data set [2] (10.0 mg/kg single s.c. dose) were 59.4, 45.4 and 26.7, respectively. Further, the entries for the “% Analgesia” value in data set [2] (1.0 mg/kg single s.c. dose), in data set [2] (3.2 mg/kg single s.c. dose) and in data set [2] (10.0 mg/kg single s.c. dose) were −12.29%, 14.18% and 49.53%, respectively. The half-life in data set [6] was 6 to 12 h.
In the case of `CCC(=O)O[C@](Cc1ccccc1)(c1ccccc1)[C@H](C)CNC` [norpropoxyphene], in data set [7], the analgesic properties entry is given as “very weak analgesic properties”.

These data come from patent US20050089558A1 (Alamo Pharmaceuticals, LLC, priority 2003, published 2005).
